Data reported in patent publication US20060142180A1, “Cholinergic modulation of microglial activation via alpha-7 nicotinic receptors” (priority 2003, published 2006).
Like-named read-outs stand apart in the source and are kept apart here.

Columns and labels:
[1] = tested on: LPS-induced TNF-α release in primary cultured microglial cells; assay: LPS-induced TNF-α release from primary cultured microglial cells (ELISA); assay type: cell-based, mouse
Procedure: Murine primary culture microglial cells were isolated from mouse cerebral cortices (C57BL/6 mice) and cultured as previously described (Tan et al. 2000b). To investigate whether α7 nAChR subunits are expressed in microglial cells, we first isolated total RNA from N9 microglial cell line and primary cultured microglial cells for RT-PCR analysis.
To determine whether ACh or nicotine could inhibit LPS-induced TNF-α production in these microglial cells, the inventors pre-incubated microglial cells with ACh or nicotine for 30 minutes and challenged these cells with LPS for 4 hours. […] Primary cultured microglial cells pretreated with ACh (FIG. 3B) or nicotine […] at a range of dose as indicated for 30 minutes and challenged with LPS (100 ng/mL) for 4 hours. Microglial TNF-α release was measured by ELISA.

[2] = biological target: α7 nAChR subunit (Mus musculus, UniProt P49582)
α7 nAChR subunit, sequence (P49582 23-502): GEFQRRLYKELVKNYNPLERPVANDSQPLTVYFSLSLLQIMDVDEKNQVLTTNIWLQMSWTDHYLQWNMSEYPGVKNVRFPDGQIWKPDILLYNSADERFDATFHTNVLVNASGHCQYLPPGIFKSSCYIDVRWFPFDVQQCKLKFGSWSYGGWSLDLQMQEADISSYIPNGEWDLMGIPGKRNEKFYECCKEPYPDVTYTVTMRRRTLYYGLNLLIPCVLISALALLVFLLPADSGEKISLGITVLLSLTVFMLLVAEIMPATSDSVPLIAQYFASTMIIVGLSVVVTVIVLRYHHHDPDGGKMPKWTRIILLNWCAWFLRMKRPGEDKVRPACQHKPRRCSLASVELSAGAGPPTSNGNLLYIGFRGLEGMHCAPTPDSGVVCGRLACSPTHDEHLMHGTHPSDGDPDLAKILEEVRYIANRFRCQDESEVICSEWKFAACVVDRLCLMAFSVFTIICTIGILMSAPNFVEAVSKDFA

Compound: CNC1(C)C2CCC(C2)C1(C)C (stereo not drawn) [mecamylamine]
- effect of nACh antagonist on ACh or nicotine-mediated inhibition of microglial TNF-α production [1]: significantly recovers
- TNF-α release, antagonist plus LPS versus LPS alone ([1]; antagonist without agonist, […], LPS 100 ng/mL 4 hours, p>0.05): no significances

Compound: CN1CCCC1c1cccnc1 (stereo not drawn) [nicotine]
- fluorescent intensity of FITC-labeled α-bungarotoxin binding [2]: marked reduction
- dose dependence of inhibition of microglial LPS-induced TNF-α production [1]: dose-dependently inhibits
- LPS-induced TNF-α release ([1]; pre-stimulated 30 minutes at 5 μM, then LPS 100 ng/mL for 4 hours, p<0.01 vs LPS (FIG. 3A)): marked reduction

Compound: α-bungarotoxin
- TNF-α release, antagonist plus LPS versus LPS alone [1]: no significances
